From patent US8563712B2, “Hydroxy-substituted gold(III) porphyrin complexes as histone deacetylase inhibitors” (The University of Hong Kong, priority 2009, dated 2013) come the findings set out here.

The test system of series [1] is acetylated histone H4. The experiment in a line: ChIP-PCR of acetylated histone H4 at promoter regions. The series is classed as cell-based, human. The note with it: MDA-MB-231, 24 hours. How it is done: To further confirm these unexpected observations, ChIP-PCR was performed to quantify the acetylated histone H4 levels at the promoter regions of the above genes. […] Similar levels of acetylated histone H4 were only observed at 24 hours after treatment.
MDA-MB-231 cells were treated with different drugs for 24 hours. ChiP-PCR was performed for analyzing the levels of acetylated histone H4 at the promoter regions of CTNNB1, WIF1, WNT5B, WNT1, WISP1 and ESR1, using antibody recognizing histone H4 acetylated at lysines 5, 8, 12, and 16. Bar charts represented the quantitative results by real time PCR analysis after normalization against the input DNA. Representative agarose gel images were shown at the bottom. […] Equal protein loading was confirmed by Amido black staining. *, P<0.01 versus vehicle control, n=3.

For series [2], the system named is histone H4 acetylation. The experiment in a line: Western blotting of global acetylated histone H4. The series is classed as cell-based, human. The settings on record: MDA-MB-231, six and 24 hours. (In general: Immunoblotting shows a protein as a band on a membrane.)
In series [3] the test system is MDA-MB-231. Nature of the series: Crystal violet anti-proliferative assay. The series is classed as cell-based, human. On the procedure: (§1) Table 1). The presence of high concentrations of serum had no effects on the potencies of the drug. […] Similar results were observed when the drug exposure time was extended to 48 h. […] The antiproliferative activity of another gold(III) porphyrin complex ([Au^III(TPP)]Cl, gold-1a) in MDA-MB-231 cells was also tested. […] Apoptosis of MDA-MB-231 cells were evaluated by measuring DNA fragmentation.

The test system of series [4] is MDA-MB-231 tumor xenograft. Nature of the series: Mammary MDA-MB-231 tumor growth in nude mice. The series is classed as in vivo. How it is done: Most of the animals remained in a tumor-free status until day 25, at which recurrence of a tumor was observed.
MDA-MB-231 cells were inoculated into the mammary fat pad of nude mice as described in Methods. […] Tumor growth (A) and body weight (B) were monitored bi-weekly. C, Kaplan-Meier estimates of the survival curves were calculated and plotted. D, At the end of experiment, tumors were collected and weighed. # and *, P<0.05 versus PET control, n=4-6.

Series [5] concerns SKBR3. The experiment in a line: Crystal violet anti-proliferative assay. It is filed as cell-based, human. How it is done: as §1
For series [6], the system named is T47D. Nature of the series: Crystal violet anti-proliferative assay. The series is classed as cell-based, human. On the procedure: as §1
Series [7] concerns MCF7. The experiment in a line: Crystal violet anti-proliferative assay. The series is classed as cell-based, human. How it is done:
as §1

The test system of series [8] is BT474. Nature of the series: Crystal violet anti-proliferative assay. It is filed as cell-based, human. On the procedure:
as §1

For series [9], the system named is human breast carcinoma cells (BT474, MCF-7, T47D, MDA-MB-231, SKBR3). Nature of the series: Crystal violet assay, statements on the whole panel. The series is classed as cell-based. The note with it: five breast carcinoma cell lines. On the procedure: as §1
Series [10] has as its system β-catenin. The experiment in a line: β-catenin protein level, nuclear activity, phosphorylation and ubiquitination. The series is classed as cell-based, human. The note with it: MDA-MB-231 cells. The text has this: Aberrant activation of the Wnt/β-catenin signalling plays a key role in the development of many human cancer diseases. Intracellular accumulation of β-catenin protein has been observed in a large portion of human breast tumors. […] On the contrary, cisplatin had no influence on both the protein levels and nuclear activities of β-catenin. In the absence of a Wnt signal, β-catenin is phosphorylated by glycogen synthase kinase-3beta, which facilitates the subsequent ubiquitination and proteasome degradation.

Where [11] appears, read: intraductal 15 mg/kg, end of experiment.

As usually defined, the IC50 is the concentration that gives 50% inhibition. Low readings indicate inhibition by little substance, high ones a need for much substance.

In the case of `CC(/C=C/C(=O)NO)=C\[C@@H](C)C(=O)c1ccc(N(C)C)cc1` [TSA, trichostatin A], in series [1], the “acetylated histone H4 at CTNNB1 promoter” value is listed as “not significantly altered”, the “acetylated histone H4 at ESR1 promoter” value is reported as “increased”, the “acetylated histone H4 at WIF1 promoter” value is reported as “no significant effects” and the “acetylated histone H4 at WISP1 promoter” value is given as “not significantly altered”. In addition, in [1], the “acetylated histone H4 at WNT1 promoter” value is reported as “no significant effects” and the “acetylated histone H4 at WNT5B promoter” value is reported as “no significant effects”. Besides, the “global histone H4 acetylation” value in series [2] is on record as “significant induction”.
On to [Au^III(TPP)]Cl [gold-1a], for which the “less effective than gold-2a (growth inhibition curves)” value in [3] (MDA-MB-231 cells, non-linear regression) is reported as roughly 1000 fold. In addition, the “inhibition of breast tumor growth” value in [4] (sub-lethal concentrations) is reported as “no inhibition”.
`N.N.[Cl][Pt][Cl]` [cisplatin]: the IC50 came out at 65.9 ± 25.5 µM in [5] (24 hours, 0.5% FBS); 76.3 ± 33.8 µM in series [5] (24 hours, 10% FBS); 33.9 ± 11 µM in series [5] (48 hours, 0.5% FBS); 41 ± 7.91 µM in [5] (48 hours, 10% FBS); 66.5 ± 12.4 µM in series [6] (24 hours, 0.5% FBS); 99.4 ± 5.71 µM in series [6] (24 hours, 10% FBS). The IC50 in [6] (48 hours, 0.5% FBS) was 7.76 ± 5.54 µM; in series [6] (48 hours, 10% FBS), 6.69 ± 3.14 µM; in series [7] (24 hours, 0.5% FBS), 14.3 ± 1.46 µM; in series [7] (24 hours, 10% FBS) it was 20.1 ± 4.92 µM; in series [7] (48 hours, 0.5% FBS) it was 10.1 ± 1.47 µM; in series [7] (48 hours, 10% FBS) it was 15.9 ± 2.33 µM. The IC50 turned out to be 7.37 ± 1.19 µM in series [3] (24 hours, 0.5% FBS); 21 ± 11.2 µM in series [3] (24 hours, 10% FBS); 6.52 ± 0.48 µM in series [3] (48 hours, 0.5% FBS); 18.4 ± 3.42 µM in [3] (48 hours, 10% FBS); 49 ± 0.5 µM in series [8] (24 hours, 0.5% FBS); 45.1 ± 8.2 µM in series [8] (24 hours, 10% FBS). The half-maximal inhibitory concentration (IC50) in series [8] (48 hours, 0.5% FBS) worked out at 1.6 ± 0.53 µM; in series [8] (48 hours, 10% FBS), 2.89 ± 0.9 µM. The same compound registered an animals died in series [4] (after two intraductal injections) of roughly 40%. Further, the average tumor weights in series [4] (setting [11]) was 0.42 g. Moreover, the “tumor weight decreased compared to control group” value in [4] (setting [11]) turned out to be 34%. In series [4] (intraductal, same dosage (15 mg/kg)), the “rates of tumor growth compared to gold-2a” value is given as “attenuated the rates of tumor growth to a much lesser degree”. The “IC50 values higher when compared to gold-2a” value in series [9] is listed as 100-3000 times. In series [10], the “nuclear transcriptional activities of β-catenin” value is “no influence”. For the same compound, the “protein levels of β-catenin” value in [10] (from four hours, 0.5% and 10% FBS) is recorded as “no influence”.
